Laboratory results: patent US9109041B2, “Analog compounds of analgesic peptides derived from the venom of crotalus durissus terrificus snakes, their uses, compositions, methods of preparation and purification” (priority 2004, dated 2015)

Key:
[1] = system: hyperalgesia induced by chronic constriction of the sciatic nerve; assay: hyperalgesia induced by chronic constriction of the sciatic nerve (rat paw pressure test); type: in vivo
Protocol: (§1) For the induction of neuropathic pain, surgery was performed in the sciatic nerve, in accordance with the method described by Bennett, G. J and Xie, Y. K. (Pain, 33:87-107, 1988). The animals were anesthetized with halothane. The sciatic nerve was exposed in the middle region of the thigh, moving away the femoral biceps muscle. Close to the trifurcation of the sciatic nerve, 7 mm of distance from the trifurcation, 4 loose ligations were performed (chromed catgut 4-0) around it, distant from each other in approximately 1 mm. The bindings were performed along the nerve, up to 4-5 mm from the initial point. The incision was sutured in layers, using silk suture thread number 4-0.
The test was applied before (BM-basal measurement) and on the 14th day after the surgery, to characterize the development of neuropathic pain.
The results were analyzed by comparing the means of the basal and initial measurements or by comparing the means of the initial and final measurements or, when determined, through the comparison of the means obtained in the different experimental groups.
(§2) For this purpose, the animals were treated with CTOP, a specific μ receptor antagonist (20 μg/paw), nor-BNI, a specific κ receptor antagonist (50 μg/paw) or with ICI 174,864, a specific δ receptor antagonist (10 μg/paw). The antagonists were injected, by intraplantar route. The peptide was administered in the dose of 5 μg/kg, orally, immediately before the injection of the opioid antagonists.
(§3) The results were analyzed comparing the mean values of the basal and initial measurements, or of the initial and final measurements or, when determined, by comparing the mean values obtained in the different experimental groups (Tables 15 and 16).

[2] = system: allodynia induced by constriction of the sciatic nerve; assay: allodynia induced by chronic constriction of the sciatic nerve (von Frey hairs); type: in vivo, rat; settings: for paw withdrawal threshold (allodynia), BM: before surgery; for paw withdrawal threshold (allodynia), FM 1 h: day 14, 1 h after peptide; for paw withdrawal threshold (allodynia), FM 3 h: day 14, 3 h after peptide; for paw withdrawal threshold (allodynia), FM 24 h: day 14, 24 h after peptide; for paw withdrawal threshold (allodynia), FM 48 h: day 14, 48 h after peptide; for paw withdrawal threshold (allodynia), FM 72 h: day 14, 72 h after peptide; for paw withdrawal threshold (allodynia), FM 96 h: day 14, 96 h after peptide; for paw withdrawal threshold (allodynia), IM: day 14 after surgery, before peptide
Protocol: as §1
Allodynia was evaluated for quantitative testing, in response to tactile stimulus applied to the paws of the rat, according to the method described by Chaplan el al. (1994), modified. In this test, the rats were placed, individually, in plastic cages, with meshed wire at the bottom, to allow access to the paws of these animals. Briefly, a logarithmic series of 10 calibrated Semmes-Weinstein monofilaments (von Frey hairs, Aesthesiometer Semmer-Weinstein, Stoelting Co., E.U.A) was applied to the right hind paw to determine the stimulus intensity threshold stiffness required to elicit a paw withdrawal response. Log stiffness of the hairs is determined by log 10 (mg×10) having the following values (the value in grams is between parenthesis): 3.61 (0.407 g); 3.84 (0.692 g); 4.08 (1.202 g); 4.17 (1.479 g); 4.31 (2.041 g); 4.56 (3.630 g); 4.74 (5.495 g); 4.93 (8.511 g); 5.07 (11.749 g) and 5.18 (15.136 g). It is important to point out that the filaments with weight greater than 15.136 g were not employed in the studies of allodynia.
The filaments were applied, one by one, perpendicularly, under the plantar area of both hind paws and maintained for a period of 8 seconds. The filament capable of eliciting the withdrawal of the paw, two consecutive times, was considered as the force in grams necessary to elicit the response (100% of response). In the absence of a response to the greater stimulus (15.135 g), this filament was considered as cut value.
The behavioral responses were used to calculate the 50% paw withdrawal threshold (absolute threshold), by fitting a gaussian integral psychometric function, using a maximum-likelihood fitting method. This fitting method allows parametric analyses.
The period of the application of the test and the treatments were the same as those used for determination of hyperalgesia (Table 12).
The results were analyzed by comparing the means of the basal and initial measurements or, when determined, by comparing the means obtained in the different experimental groups.
as §2, §3

[3] = oral route, results 1 hour after treatment, reversal of hyperalgesia, CurveExpert 1.3

Substance: Xaa-Phe-Ser-Pro-Glu-Asn-Cys-Gln-Gly-Glu-Ser-Gln-Pro-Cys [SEQ ID NO: 2]
- pain threshold, IM ([1]; 5 μg/kg p.o. + nor-BNI 50 μg/paw i.pl., day 14, before peptide): 35 ± 1.58 g
- pain threshold, BM ([1]; 5 μg/kg p.o., before surgery (Table 11)): 72 ± 0.79 g
- pain threshold, BM ([1]; 5 μg/kg p.o., before surgery (Table 15)): 72 ± 1.44 g
- pain threshold, FM 1 h ([1]; 5 μg/kg p.o., day 14, 1 h after peptide (Table 11)): 100 ± 4.42 g
- pain threshold, FM 1 h ([1]; 5 μg/kg p.o., day 14, 1 h after peptide (Table 15)): 114 ± 6.57 g
- pain threshold, FM 3 h ([1]; 5 μg/kg p.o., day 14, 3 h after peptide (Table 11)): 98 ± 4.28 g
- pain threshold, MF 3 h ([1]; 5 μg/kg p.o., day 14, 3 h after peptide (Table 15)): 121 ± 5.91 g
- pain threshold, FM 24 h ([1]; 5 μg/kg p.o., day 14, 24 h after peptide): 99 ± 3.51 g
- pain threshold, FM 48 h ([1]; 5 μg/kg p.o., day 14, 48 h after peptide): 93 ± 3.00 g
- pain threshold, FM 72 h ([1]; 5 μg/kg p.o., day 14, 72 h after peptide): 86 ± 2.45 g
- pain threshold, FM 96 h ([1]; 5 μg/kg p.o., day 14, 96 h after peptide): 33 ± 1.18 g
- pain threshold, IM ([1]; 5 μg/kg p.o., day 14, before peptide (Table 15)): 35 ± 2.04 g
- pain threshold, IM ([1]; 5 μg/kg p.o., day 14 after surgery, before peptide (Table 11)): 32 ± 0.79 g
- duration of the anti-hyperalgesic effect ([1]; one single administration p.o.): up to 3 days
- 50% effective dose [1, 3]: 0.2055 µg/kg
- 60% effective dose [1, 3]: 0.2832 µg/kg
- 90% effective dose [1, 3]: 0.5747 µg/kg
- effect of the mu opioid receptor antagonist on the anti-hyperalgesic effect of the peptide ([1]; peptide 5 μg/kg p.o., CTOP 20 μg/paw i.pl.): did not alter
- effect of the delta opioid receptor antagonist on the anti-hyperalgesic effect of the peptide ([1]; peptide 5 μg/kg p.o., ICI 174,864 10 μg/paw i.pl.): blocked
- effect of the kappa opioid receptor antagonist on the anti-hyperalgesic effect of the peptide ([1]; peptide 5 μg/kg p.o., nor-BNI 50 μg/paw i.pl.): partially inhibited
- paw withdrawal threshold (allodynia), BM ([2]; 0.0016 μg/kg p.o.): 5.02 ± 0.03 log 10 (mg × 10)
- paw withdrawal threshold (allodynia), FM 1 h ([2]; 0.0016 μg/kg p.o.): 4.22 ± 0.00 log 10 (mg × 10)
- paw withdrawal threshold (allodynia), FM 3 h ([2]; 0.0016 μg/kg p.o.): 4.22 ± 0.00 log 10 (mg × 10)
- paw withdrawal threshold (allodynia), FM 24 h ([2]; 0.0016 μg/kg p.o.): 4.22 ± 0.00 log 10 (mg × 10)
- paw withdrawal threshold (allodynia), FM 48 h ([2]; 0.0016 μg/kg p.o.): 4.22 ± 0.00 log 10 (mg × 10)
- paw withdrawal threshold (allodynia), FM 72 h ([2]; 0.0016 μg/kg p.o.): 4.22 ± 0.00 log 10 (mg × 10)
- paw withdrawal threshold (allodynia), FM 96 h ([2]; 0.0016 μg/kg p.o.): 4.22 ± 0.00 log 10 (mg × 10)
- paw withdrawal threshold (allodynia), IM ([2]; 0.0016 μg/kg p.o.): 4.22 ± 0.00 log 10 (mg × 10)
- paw withdrawal threshold (allodynia), BM ([2]; 0.008 μg/kg p.o.): 4.99 ± 0.02 log 10 (mg × 10)
- paw withdrawal threshold (allodynia), FM 1 h ([2]; 0.008 μg/kg p.o.): 4.22 ± 0.00 log 10 (mg × 10)
- paw withdrawal threshold (allodynia), FM 3 h ([2]; 0.008 μg/kg p.o.): 4.22 ± 0.00 log 10 (mg × 10)
- paw withdrawal threshold (allodynia), FM 24 h ([2]; 0.008 μg/kg p.o.): 4.22 ± 0.00 log 10 (mg × 10)
- paw withdrawal threshold (allodynia), FM 48 h ([2]; 0.008 μg/kg p.o.): 4.22 ± 0.00 log 10 (mg × 10)
- paw withdrawal threshold (allodynia), FM 72 h ([2]; 0.008 μg/kg p.o.): 4.22 ± 0.00 log 10 (mg × 10)
- paw withdrawal threshold (allodynia), FM 96 h ([2]; 0.008 μg/kg p.o.): 4.22 ± 0.00 log 10 (mg × 10)
- paw withdrawal threshold (allodynia), IM ([2]; 0.008 μg/kg p.o.): 4.22 ± 0.00 log 10 (mg × 10)
- paw withdrawal threshold (allodynia), BM ([2]; 0.04 μg/kg p.o.): 4.97 ± 0.99 log 10 (mg × 10)
- paw withdrawal threshold (allodynia), FM 1 h ([2]; 0.04 μg/kg p.o.): 4.22 ± 0.00 log 10 (mg × 10)
- paw withdrawal threshold (allodynia), FM 3 h ([2]; 0.04 μg/kg p.o.): 4.22 ± 0.00 log 10 (mg × 10)
- paw withdrawal threshold (allodynia), FM 24 h ([2]; 0.04 μg/kg p.o.): 4.22 ± 0.00 log 10 (mg × 10)
- paw withdrawal threshold (allodynia), FM 48 h ([2]; 0.04 μg/kg p.o.): 4.26 ± 0.04 log 10 (mg × 10)
- paw withdrawal threshold (allodynia), FM 72 h ([2]; 0.04 μg/kg p.o.): 4.22 ± 0.00 log 10 (mg × 10)
- paw withdrawal threshold (allodynia), FM 96 h ([2]; 0.04 μg/kg p.o.): 4.22 ± 0.00 log 10 (mg × 10)
- paw withdrawal threshold (allodynia), IM ([2]; 0.04 μg/kg p.o.): 4.22 ± 0.00 log 10 (mg × 10)
- paw withdrawal threshold (allodynia), BM ([2]; 0.2 μg/kg p.o.): 5.03 ± 0.02 log 10 (mg × 10)
- paw withdrawal threshold (allodynia), FM 1 h ([2]; 0.2 μg/kg p.o.): 4.41 ± 0.00 log 10 (mg × 10)
- paw withdrawal threshold (allodynia), FM 3 h ([2]; 0.2 μg/kg p.o.): 4.41 ± 0.00 log 10 (mg × 10)
- paw withdrawal threshold (allodynia), FM 24 h ([2]; 0.2 μg/kg p.o.): 4.41 ± 0.00 log 10 (mg × 10)
- paw withdrawal threshold (allodynia), FM 48 h ([2]; 0.2 μg/kg p.o.): 4.41 ± 0.00 log 10 (mg × 10)
- paw withdrawal threshold (allodynia), FM 72 h ([2]; 0.2 μg/kg p.o.): 4.41 ± 0.00 log 10 (mg × 10)
- paw withdrawal threshold (allodynia), FM 96 h ([2]; 0.2 μg/kg p.o.): 4.22 ± 0.00 log 10 (mg × 10)
